Test results as given in US5041567A, “Antibacterial monic acid derivatives” (Beecham Group plc, priority 1982, dated 1991).
Values after ≈ are worked out from the molar mass of the structure shown. Where two headings read alike, the source gives them in different places.

Key:
[1] = system: M. suipneumoniae NB12; test: MIC against mycoplasma in vitro; assay type: cell-based; conditions: Mesomycoplasma hyopneumoniae
[2] = system: M. suipneumoniae HK(2); test: MIC against mycoplasma in vitro; assay type: cell-based; conditions: Mesomycoplasma hyopneumoniae, 144 h
[3] = system: M. suipneumoniae J2206/183^b; test: MIC against mycoplasma in vitro; assay type: cell-based; conditions: Mesomycoplasma hyopneumoniae, 144 h
[4] = system: M. suipneumoniae MS 16; test: MIC against mycoplasma in vitro; assay type: cell-based; conditions: Mesomycoplasma hyopneumoniae, MS16, 144 h
[5] = system: M. suipneumoniae LABER; test: MIC against mycoplasma in vitro; assay type: cell-based; conditions: Mesomycoplasma hyopneumoniae, 144 h
[6] = system: M. suipneumoniae UCD 1; test: MIC against mycoplasma in vitro; assay type: cell-based; conditions: Mesomycoplasma hyopneumoniae, UCD1, 144 h
[7] = system: M. suipneumoniae TAM 6N; test: MIC against mycoplasma in vitro; assay type: cell-based; conditions: Mesomycoplasma hyopneumoniae, TAM6N, 144 h; M. suipneumoniae TAM 6N; 6 days, 37° C.; read-out: MIC
[8] = system: M. suipneumoniae ATCC 25095; test: MIC against mycoplasma in vitro; assay type: cell-based; conditions: Mesomycoplasma hyopneumoniae, ATCC25095, 144 h
[9] = system: M. hyorhinis ATCC 23234; test: MIC against mycoplasma in vitro; assay type: cell-based; conditions: Mesomycoplasma hyorhinis, ATCC23234, 144 h
[10] = system: M. hyorhinis ATCC 25021; test: MIC against mycoplasma in vitro; assay type: cell-based; conditions: Mesomycoplasma hyorhinis, ATCC25021, 144 h
[11] = system: M. hyosynoviae ATCC 25591; test: MIC against mycoplasma in vitro; assay type: cell-based; conditions: 144 h; M. hyosynoviae ATCC 25591; 6 days, 37° C.; read-out: MIC
[12] = system: M. bovis NCTC 10131; test: microbe, parasite or virus in culture; assay type: cell-based; conditions: NCTC10131, 144 h
[13] = system: M. bovigenitalium ATCC 14173; test: MIC against mycoplasma in vitro; assay type: cell-based; conditions: 144 h
[14] = system: P. mirabilis 889; test: MIC against human bacteria in vitro; assay type: cell-based; conditions: Proteus mirabilis; P. mirabilis 889; 5% chocolated horse blood agar, 18 hours; read-out: MIC
[15] = system: K. aerogenes A; test: MIC against human bacteria in vitro; assay type: cell-based; conditions: Klebsiella aerogenes; K. aerogenes A; 5% chocolated horse blood agar, 18 hours; read-out: MIC
[16] = system: Ps. aeruginosa NCTC 10662; test: MIC against human bacteria in vitro; assay type: cell-based; conditions: Pseudomonas aeruginosa, NCTC10662; Ps. aeruginosa NCTC 10662; 5% chocolated horse blood agar, 18 hours; read-out: MIC
[17] = system: Haemophilus influenzae Wy21; test: MIC against human bacteria in vitro; assay type: cell-based
[18] = system: Neisseria catarrhalis 1502; test: MIC against human bacteria in vitro; assay type: cell-based; conditions: Neisseria catarrhalis 1502; 5% chocolated horse blood agar, 18 hours; read-out: MIC
[19] = system: Corynebacterium xerosis 9755; test: MIC against human bacteria in vitro; assay type: cell-based; conditions: Corynebacterium xerosis 9755; 5% chocolated horse blood agar, 18 hours; read-out: MIC
[20] = system: Sarcina lutea 8340; test: MIC against human bacteria in vitro; assay type: cell-based; conditions: Micrococcus luteus; Sarcina lutea 8340; 5% chocolated horse blood agar, 18 hours; read-out: MIC
[21] = system: Staph. aureus Russell; test: MIC against human bacteria in vitro; assay type: cell-based; conditions: Staphylococcus aureus; Staph. aureus Russell; 5% chocolated horse blood agar, 18 hours; read-out: MIC
[22] = system: Staph. aureus W2827; test: MIC against human bacteria in vitro; assay type: cell-based; conditions: Staphylococcus aureus; Staph. aureus W2827; 5% chocolated horse blood agar, 18 hours; read-out: MIC
[23] = system: Strep. faecalis I; test: MIC against human bacteria in vitro; assay type: cell-based; conditions: Enterococcus faecalis; Strep. faecalis I; 5% chocolated horse blood agar, 18 hours; read-out: MIC
[24] = system: Strep. agalactiae 2788-B; test: MIC against human bacteria in vitro; assay type: cell-based; conditions: Streptococcus agalactiae; Strep. agalactiae 2788-B; 5% chocolated horse blood agar, 18 hours; read-out: MIC
[25] = system: Strep. pneumoniae CN33; test: MIC against human bacteria in vitro; assay type: cell-based; conditions: Streptococcus pneumoniae; Strep. pneumoniae CN33; 5% chocolated horse blood agar, 18 hours; read-out: MIC
[26] = system: Bord. bronchiseptica B08; test: MIC against veterinary bacteria in vitro; conditions: Bordetella bronchiseptica, B08, 18 h
Method: (§1) The activity of the compounds of the Examples against various veterinarily important bacteria, was assayed in vitro using two-fold serial dilutions in Diagnostic Sensitivity Test Agar inoculated with 10^4 organisms.

[27] = system: Bord. bronchiseptica B09; test: MIC against veterinary bacteria in vitro; conditions: Bordetella bronchiseptica, B09, 18 h
Method: as §1

[28] = system: Past. multocida PA1; test: MIC against veterinary bacteria in vitro; conditions: Pasteurella multocida, PA1, 18 h
Method: as §1

[29] = system: Past. multocida PA2; test: MIC against veterinary bacteria in vitro; conditions: Pasteurella multocida, PA2, 18 h
Method: as §1

[30] = system: Past. haemolytica PA5; test: MIC against veterinary bacteria in vitro; conditions: Mannheimia haemolytica, PA5, 18 h
Method: as §1

[31] = system: Erysipelothrix rhusiopathiae NCTC 8163; test: MIC against veterinary bacteria in vitro; conditions: Erysipelothrix rhusiopathiae, NCTC8163, 18 h
Method: as §1

[32] = system: Corynebacterium pyogenes CY1; test: MIC against veterinary bacteria in vitro; conditions: CY1, 18 h
Method: as §1

[33] = system: Strep. suis (group D) SPS11; test: MIC against veterinary bacteria in vitro; conditions: Streptococcus suis, 18 h
Method: as §1

[34] = system: Strep. dysgalactiae SPD1; test: MIC against veterinary bacteria in vitro; conditions: Streptococcus dysgalactiae, SPD1, 18 h
Method: as §1

[35] = system: Staph. aureus B4 (pen. resistant); test: MIC against veterinary bacteria in vitro; conditions: Staphylococcus aureus, 18 h
Method: as §1

SMILES	MIC [7] [µg/mL]	MIC [9] [µg/mL]	MIC [10] [µg/mL]	MIC [11] [µg/mL]	MIC [12] [µg/mL]	MIC [13] [µg/mL]	MIC [14] [µg/mL]	MIC [15] [µg/mL]	MIC [16] [µg/mL]	MIC [18] [µg/mL]	MIC [19] [µg/mL]	MIC [20] [µg/mL]	MIC [21] [µg/mL]	MIC [22] [µg/mL]	MIC [23] [µg/mL]	MIC [24] [µg/mL]	MIC [25] [µg/mL]	MIC [26] [µg/mL]	MIC [27] [µg/mL]	MIC [28] [µg/mL]	other results
C/C(=C\c1ncc(-c2cccc([N+](=O)[O-])c2)o1)C[C@@H]1OC[C@H](C[C@@H]2O[C@H]2[C@@H](C)[C@H](C)O)[C@@H](O)[C@H]1O [Example 6, 5-m-nitrophenyl-2-(1-normon-2-yl)oxazole A]	0.1 (≈ 0.205 µM)	0.025 (≈ 0.0512 µM)	0.025 (≈ 0.0512 µM)	0.5 (≈ 1.02 µM)	0.025 (≈ 0.0512 µM)	0.05 (≈ 0.102 µM)	> 128	> 128	> 128	4 (≈ 8.19 µM)	> 128	> 128	16 (≈ 32.8 µM)	16 (≈ 32.8 µM)	> 128	4 (≈ 8.19 µM)	4 (≈ 8.19 µM)	80 (≈ 164 µM)	20 (≈ 40.9 µM)	10 (≈ 20.5 µM)	MIC ([1]; NB12, 144 h): 0.05 µg/mL (≈ 0.102 µM); MIC [2]: 0.05 µg/mL (≈ 0.102 µM); MIC [3]: 0.05 µg/mL (≈ 0.102 µM); MIC [4]: 0.025 µg/mL (≈ 0.0512 µM); MIC [5]: 0.05 µg/mL (≈ 0.102 µM); MIC [6]: 0.05 µg/mL (≈ 0.102 µM); MIC [8]: 0.05 µg/mL (≈ 0.102 µM); MIC ([17]; Haemophilus influenzae Wy21, 5% chocolated horse blood agar, 18 hours, read-out: MIC): 2 µg/mL (≈ 4.09 µM); MIC [29]: 1.25 µg/mL (≈ 2.56 µM); MIC [30]: 80 µg/mL (≈ 164 µM); MIC [31]: > 80 µg/mL; MIC [32]: > 80 µg/mL; MIC [33]: 10 µg/mL (≈ 20.5 µM); MIC [34]: 0.625 µg/mL (≈ 1.28 µM)
C/C(=C\c1ncc(-c2ccc(CO)cc2)o1)C[C@@H]1OC[C@H](C[C@@H]2O[C@H]2[C@@H](C)[C@H](C)O)[C@@H](O)[C@H]1O [Example 13, 5-p-Hydroxymethylphenyl-2-(1-normon-2-yl) oxazole A]	0.25 (≈ 0.528 µM)	0.1 (≈ 0.211 µM)	0.1 (≈ 0.211 µM)	0.25 (≈ 0.528 µM)	≤ 0.01	0.025 (≈ 0.0528 µM)	> 128	> 128	> 128	4 (≈ 8.45 µM)	64 (≈ 135 µM)	128 (≈ 270 µM)	4 (≈ 8.45 µM)	4 (≈ 8.45 µM)	> 128	2 (≈ 4.22 µM)	4 (≈ 8.45 µM)	> 80	20 (≈ 42.2 µM)	2.5 (≈ 5.28 µM)	MIC ([1]; 144 h, M. suipneumoniae NB12, Friis broth, 0.9% agarose, 6 days, 37° C., read-out: MIC): 0.1 µg/mL (≈ 0.211 µM); MIC ([2]; M. suipneumoniae HK(2), 6 days, 37° C., read-out: MIC): 0.25 µg/mL (≈ 0.528 µM); MIC ([3]; M. suipneumoniae J2206/183^b, 6 days, 37° C., read-out: MIC): 0.25 µg/mL (≈ 0.528 µM); MIC ([4]; M. suipneumoniae MS 16, 6 days, 37° C., read-out: MIC): 0.1 µg/mL (≈ 0.211 µM); MIC ([6]; M. suipneumoniae UCD 1, 6 days, 37° C., read-out: MIC): 0.25 µg/mL (≈ 0.528 µM); MIC ([8]; M. suipneumoniae ATCC 25095, 6 days, 37° C., read-out: MIC): 0.25 µg/mL (≈ 0.528 µM); MIC ([17]; Haemophilus influenzae, WY21, 18 h): 1 µg/mL (≈ 2.11 µM); MIC [29]: 0.312 µg/mL (≈ 0.659 µM); MIC [30]: 40 µg/mL (≈ 84.5 µM); MIC [31]: > 80 µg/mL; MIC [32]: > 80 µg/mL; MIC [35]: 1.25 µg/mL (≈ 2.64 µM); MIC [33]: 10 µg/mL (≈ 21.1 µM); MIC [34]: 0.625 µg/mL (≈ 1.32 µM)
